Assay results published in PMC6805555, “Characterization of resistance to a potent D-peptide HIV entry inhibitor” (Retrovirology, 2019).

What was measured:
[1] = tested on: IZN36 Q577R (gp41 N-peptide mimic); assay type: binding, HIV-1 (HXB2 strain); settings: Q577R vs. WT IZN36
Protocol: A Q577R mutant version was generated via site-directed mutagenesis using the QuikChange® protocol (Stratagene). […] The cysteine residues of these constructs were biotinylated for SPR.
Protein interaction analysis was carried out on a Biacore 3000 (GE Healthcare). Analyses were performed in triplicate at 25 °C in sterile-filtered and degassed Gibco® PBS pH 7.4 (Invitrogen) supplemented with 0.005% P20 and 1 mg/mL BSA at a flow rate of 50 μL/min. First, streptavidin (Pierce) was immobilized on CM5 chips (GE Healthcare) using the Amine Coupling Kit (GE Healthcare) following a standard coupling protocol [36]. […] Injections were performed for 1 min using KINJECT. Dissociation was monitored for 2 min, followed by a 20 μL injection (QUICKINJECT) of running buffer followed by EXTRACLEAN. Sensorgrams were processed using Scrubber2 (BioLogic Software), and data were analyzed with Prism 5.0 (GraphPad Software). The equilibrium binding data were fit using the built-in saturation binding model (one site—specific binding), normalized to Bmax, and replotted as concentration of analyte vs. % capacity.

[2] = tested on: HIV-1 HXB2 Env Q577R pseudotyped HIV-1; assay type: cell-based; settings: for C-peptide inhibition of Q577R compared to WT pseudoviruses: in words
Text: (§1) Supplementary file 12977_2019_489_MOESM3_ESM.pdf: Additional file 3. Effect of Q577R on C-peptide Inhibitors. Single-cycle viral infectivity assays in which HIV-1 HXB2 Env (WT and Q577R) pseudotyped HIV-1 with a luciferase reporter was used to infect HOS-LES cells in the absence or presence of six fivefold dilutions of the indicated C-peptide (in quadruplicate). The data are the average of two experiments with the standard deviation in parentheses.

[3] = tested on: enfuvirtide resistance mutations in HIV-1; settings: next-generation L-peptide fusion inhibitors; cited from earlier work
Text: The remarkable conservation of this gp41 hydrophobic pocket target is indicative of its critical roles in the viral life cycle and impedes the ability of the virus to combat inhibitors that target it. The region of the HIV-1 genome encoding the pocket is conserved at both the protein level (for the role of gp41 in membrane fusion during viral entry) and nucleotide level (due to a structured RNA region in the critical Rev-response element). The only FDA-approved HIV fusion inhibitor, enfuvirtide (Fuzeon), is an L-peptide derived from the gp41 C-peptide region that targets the gp41 N-trime ...

[4] = tested on: HIV-1 HXB2 Env WT pseudotyped HIV-1; assay type: cell-based; settings: HXB2 Env WT pseudotyped HIV-1, luciferase reporter, HOS-LES cells, six fivefold dilutions in quadruplicate; average of two experiments (SD)
Text: as §1

HIV-1 strain NL4-3 = settings: similar passaging studies; cited from earlier work
Text: This extremely high affinity for the transiently exposed gp41 trimer provides a reserve of binding energy (resistance capacitor) to prevent the viral resistance pathway of stepwise accumulation of modest affinity-disrupting mutations. Such modest mutations would not affect PIE12-trimer potency and therefore not confer a selective advantage. Viral pa ... || We previously reported the selection of HIV-1 populations resistant to PIE12-trimer by passaging the lab-adapted NL4-3 strain in the presence of escalating suboptimal (partially inhibiting) concentrations of inhibitor, starting with 1 nM. Ultimately, PIE12-trimer resistant virus propagating in 320 nM PIE12-trimer was obtained after 65 weeks of passaging. Duplicate selections yielded two highly resistant polyclonal viral pools (W1 and W2). As previously reported, similar passaging studies with enfuvirtide led to high-level resistance (> 1000-fold) within ~ 3 weeks. […] We therefore investigated the growth kinetics of the NL4-3-based replication competent Q577 point mutants and the polyclonal viral pools (W1 and W2) and compared them to that of the native virus (clonal NL4-3, WT).

Q577R HIV-1 = settings: other studied HIV-1 strains; cited from earlier work
Text: (§2) Q577R has also been identified in viral resistance screens against other HIV-1 entry inhibitors that target the prehairpin intermediate. Against N-trimer peptides N44, N36, and IZN36, the C-peptide T2635, and the retrocyclin RC-101, Q577R is found in some or all of the resistant viruses and always accompanied by other gp41 mutation(s). By itself, Q577R provided only modest resistance to the N-trimer and C-peptide inhibitors (< threefold). Viral escape from a recently identified adnectin, 6200_A08, which similarly targets the gp41 hydrophobic pocket, ...

[5] = tested on: Q577R in patient pre-treatment env; settings: patient's pre-treatment env; cited from earlier work
Text: as §2

HIV-1 = settings: in vitro and in vivo; cited from earlier work
Text: The remarkable conservation of this gp41 hydrophobic pocket target is indicative of its critical roles in the viral life cycle and impedes the ability of the virus to combat inhibitors that target it. The region of the HIV-1 genome encoding the pocket is conserved at both the protein level (for the role of gp41 in membrane fusion during viral entry) and nucleotide level (due to a structured RNA region in the critical Rev-response element). The only FDA-approved HIV fusion inhibitor, enfuvirtide (Fuzeon), is an L-peptide derived from the gp41 C-peptide region that targets the gp41 N-trime ... || Q577R has also been identified in viral resistance screens against other HIV-1 entry inhibitors that target the prehairpin intermediate. Against N-trimer peptides N44, N36, and IZN36, the C-peptide T2635, and the retrocyclin RC-101, Q577R is found in some or all of the resistant viruses and always accompanied by other gp41 mutation(s). By itself, Q577R provided only modest resistance to the N-trimer and C-peptide inhibitors (< threefold). Viral escape from a recently identified adnectin, 6200_A08, which similarly targets the gp41 hydrophobic pocket, ...

Compound | weakening of the interaction [1] | weakening of the interaction (binding energy) [1] [kcal/mol] | Fold Difference ([2]; IC50 Q577R vs. WT) | C-peptide inhibition of Q577R compared to WT pseudoviruses [2] | impact of enfuvirtide resistance mutations [3] | IC50 ([2]; HXB2 Env Q577R pseudotyped HIV-1, luciferase reporter, HOS-LES cells, six fivefold dilutions in quadruplicate, average of two experiments (SD)) [nM] | IC50 [4] [nM] | level of resistance on passaging (HIV-1 strain NL4-3) [fold] | time to high-level resistance (HIV-1 strain NL4-3) | effect of Q577R on sensitivity (Q577R HIV-1) | resistance provided by Q577R [5] [fold] | emergence of gp41 resistance mutations (HIV-1)
CC(=O)N[C@H](Cc1c[nH]cn1)C(=O)N1CCC[C@@H]1C(=O)N[C@@H]1CSSC[C@H](C(=O)N[C@H](CCC(=O)O)C(=O)N[C@H](CC(C)C)C(=O)NCC(=O)N[C@H](CCCCN)C(N)=O)NC(=O)[C@@H](CC(C)C)NC(=O)[C@@H](Cc2c[nH]c3ccccc23)NC(=O)[C@@H](CCC(N)=O)NC(=O)[C@@H](Cc2c[nH]c3ccccc23)NC(=O)[C@@H](CCC(=O)O)NC(=O)[C@H]2CCCN2C(=O)[C@@H](Cc2ccc(O)cc2)NC(=O)[C@@H](CC(=O)O)NC1=O [PIE12] | ~ 65 fold | 2.5 |  |  |  |  |  |  |  |  |  | 
CC[C@H](C)[C@H](NC(=O)[C@H](CCC(N)=O)NC(=O)[C@H](C)NC(=O)[C@H](CCC(N)=O)NC(=O)[C@H](CCC(=O)O)NC(=O)[C@H](CC(C)C)NC(=O)[C@H](CC(C)C)NC(=O)[C@H](C)NC(=O)[C@@H](NC(=O)[C@@H](NC(=O)[C@H](CCCCN)NC(=O)[C@H](CCC(N)=O)NC(=O)[C@H](CCC(=O)O)NC(=O)[C@H](Cc1c[nH]c2ccccc12)NC(=O)[C@H](CCC(=O)O)NC(=O)[C@H](CCC(N)=O)NC(=O)[C@H](Cc1c[nH]c2ccccc12)NC(C)=O)[C@@H](C)CC)[C@@H](C)O)C(=O)N[C@@H](CCC(N)=O)C(=O)N[C@@H](CCC(N)=O)C(=O)N[C@@H](CCC(=O)O)C(=O)N[C@@H](CCCCN)C(=O)N[C@@H](CC(N)=O)C(=O)N[C@@H](CCC(=O)O)C(=O)N[C@@H](Cc1ccc(O)cc1)C(=O)N[C@@H](CCC(=O)O)C(=O)N[C@@H](CC(C)C)C(=O)N[C@@H](CCC(N)=O)C(=O)N[C@@H](CCCCN)C(=O)N[C@@H](CC(C)C)C(=O)N[C@@H](CC(=O)O)C(=O)N[C@@H](CCCCN)C(=O)N[C@@H](Cc1c[nH]c2ccccc12)C(=O)N[C@@H](C)C(=O)N[C@@H](CO)C(=O)N[C@@H](CC(C)C)C(=O)N[C@@H](Cc1c[nH]c2ccccc12)C(=O)N[C@@H](CCC(=O)O)C(=O)N[C@@H](Cc1c[nH]c2ccccc12)C(=O)N[C@@H](Cc1ccccc1)C(N)=O [T1249] |  |  | 1.2 | only modest differences | much less impacted by enfuvirtide resistance mutations |  |  |  |  |  |  | 
enfuvirtide |  |  |  | only modest differences |  | 5.33 | 1.62 | > 1000 | ~ 3 weeks | minimally affected by Q577R | 25 | rapid emergence of gp41 resistance mutations
